The values that follow come from paper PMC9785850, “Encorafenib Acts as a Dual-Activity Chemosensitizer through Its Inhibitory Effect on ABCC1 Transporter In Vitro and Ex Vivo” (Pharmaceutics, 2022).

As a reminder, the IC50 is the midpoint of a concentration-inhibition curve.

One assay addresses T1, ABCC1 (Homo sapiens, UniProt P33527).
T1 construct: human ABCC1 overexpressed in MDCKII cells
In words: daunorubicin accumulation assay in MDCKII-ABCC1 cells, flow cytometry. In kind it is cell-based. (A flow cytometer gives signals particle by particle.)

The target of another assay is T2, P-glycoprotein (ABCB1) (Homo sapiens, UniProt P08183).
T2 construct: human ABCB1 overexpressed in MDCKII cells
T2 sequence (P08183 whole entry): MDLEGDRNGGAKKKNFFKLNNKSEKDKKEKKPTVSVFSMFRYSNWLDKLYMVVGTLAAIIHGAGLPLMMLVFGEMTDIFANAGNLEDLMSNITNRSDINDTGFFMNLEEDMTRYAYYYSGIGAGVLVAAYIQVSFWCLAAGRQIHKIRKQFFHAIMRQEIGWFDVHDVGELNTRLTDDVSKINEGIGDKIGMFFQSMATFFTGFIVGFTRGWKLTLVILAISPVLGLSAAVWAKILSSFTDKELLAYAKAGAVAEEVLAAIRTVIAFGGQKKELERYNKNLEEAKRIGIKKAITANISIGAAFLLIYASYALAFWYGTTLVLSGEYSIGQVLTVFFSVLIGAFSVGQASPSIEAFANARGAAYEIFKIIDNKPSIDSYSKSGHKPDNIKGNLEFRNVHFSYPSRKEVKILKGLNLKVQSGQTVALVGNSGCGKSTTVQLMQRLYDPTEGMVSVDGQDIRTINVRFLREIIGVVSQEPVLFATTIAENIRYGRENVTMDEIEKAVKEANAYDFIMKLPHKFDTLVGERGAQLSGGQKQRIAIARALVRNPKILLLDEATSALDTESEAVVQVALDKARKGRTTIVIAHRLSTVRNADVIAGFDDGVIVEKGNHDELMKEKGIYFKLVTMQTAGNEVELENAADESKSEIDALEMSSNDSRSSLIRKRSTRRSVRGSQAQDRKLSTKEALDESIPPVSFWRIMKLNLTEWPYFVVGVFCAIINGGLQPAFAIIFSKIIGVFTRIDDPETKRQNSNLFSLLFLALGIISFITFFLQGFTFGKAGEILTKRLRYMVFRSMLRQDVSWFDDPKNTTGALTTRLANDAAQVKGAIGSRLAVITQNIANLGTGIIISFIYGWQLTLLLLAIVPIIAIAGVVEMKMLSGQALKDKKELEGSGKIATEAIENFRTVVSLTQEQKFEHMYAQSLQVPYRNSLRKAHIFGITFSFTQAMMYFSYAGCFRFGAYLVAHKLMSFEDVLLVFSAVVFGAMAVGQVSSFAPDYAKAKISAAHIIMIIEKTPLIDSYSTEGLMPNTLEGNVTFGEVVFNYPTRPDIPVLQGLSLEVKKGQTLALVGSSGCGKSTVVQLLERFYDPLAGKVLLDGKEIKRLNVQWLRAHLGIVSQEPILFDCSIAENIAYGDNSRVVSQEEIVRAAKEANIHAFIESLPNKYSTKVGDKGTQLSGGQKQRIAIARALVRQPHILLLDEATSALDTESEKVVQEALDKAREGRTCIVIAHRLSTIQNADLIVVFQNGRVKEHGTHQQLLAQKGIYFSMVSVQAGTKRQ
As to the kind of experiment: daunorubicin accumulation assay in MDCKII-ABCB1 cells, flow cytometry. The assay is classed as cell-based.

T1 sequence (P33527 whole entry): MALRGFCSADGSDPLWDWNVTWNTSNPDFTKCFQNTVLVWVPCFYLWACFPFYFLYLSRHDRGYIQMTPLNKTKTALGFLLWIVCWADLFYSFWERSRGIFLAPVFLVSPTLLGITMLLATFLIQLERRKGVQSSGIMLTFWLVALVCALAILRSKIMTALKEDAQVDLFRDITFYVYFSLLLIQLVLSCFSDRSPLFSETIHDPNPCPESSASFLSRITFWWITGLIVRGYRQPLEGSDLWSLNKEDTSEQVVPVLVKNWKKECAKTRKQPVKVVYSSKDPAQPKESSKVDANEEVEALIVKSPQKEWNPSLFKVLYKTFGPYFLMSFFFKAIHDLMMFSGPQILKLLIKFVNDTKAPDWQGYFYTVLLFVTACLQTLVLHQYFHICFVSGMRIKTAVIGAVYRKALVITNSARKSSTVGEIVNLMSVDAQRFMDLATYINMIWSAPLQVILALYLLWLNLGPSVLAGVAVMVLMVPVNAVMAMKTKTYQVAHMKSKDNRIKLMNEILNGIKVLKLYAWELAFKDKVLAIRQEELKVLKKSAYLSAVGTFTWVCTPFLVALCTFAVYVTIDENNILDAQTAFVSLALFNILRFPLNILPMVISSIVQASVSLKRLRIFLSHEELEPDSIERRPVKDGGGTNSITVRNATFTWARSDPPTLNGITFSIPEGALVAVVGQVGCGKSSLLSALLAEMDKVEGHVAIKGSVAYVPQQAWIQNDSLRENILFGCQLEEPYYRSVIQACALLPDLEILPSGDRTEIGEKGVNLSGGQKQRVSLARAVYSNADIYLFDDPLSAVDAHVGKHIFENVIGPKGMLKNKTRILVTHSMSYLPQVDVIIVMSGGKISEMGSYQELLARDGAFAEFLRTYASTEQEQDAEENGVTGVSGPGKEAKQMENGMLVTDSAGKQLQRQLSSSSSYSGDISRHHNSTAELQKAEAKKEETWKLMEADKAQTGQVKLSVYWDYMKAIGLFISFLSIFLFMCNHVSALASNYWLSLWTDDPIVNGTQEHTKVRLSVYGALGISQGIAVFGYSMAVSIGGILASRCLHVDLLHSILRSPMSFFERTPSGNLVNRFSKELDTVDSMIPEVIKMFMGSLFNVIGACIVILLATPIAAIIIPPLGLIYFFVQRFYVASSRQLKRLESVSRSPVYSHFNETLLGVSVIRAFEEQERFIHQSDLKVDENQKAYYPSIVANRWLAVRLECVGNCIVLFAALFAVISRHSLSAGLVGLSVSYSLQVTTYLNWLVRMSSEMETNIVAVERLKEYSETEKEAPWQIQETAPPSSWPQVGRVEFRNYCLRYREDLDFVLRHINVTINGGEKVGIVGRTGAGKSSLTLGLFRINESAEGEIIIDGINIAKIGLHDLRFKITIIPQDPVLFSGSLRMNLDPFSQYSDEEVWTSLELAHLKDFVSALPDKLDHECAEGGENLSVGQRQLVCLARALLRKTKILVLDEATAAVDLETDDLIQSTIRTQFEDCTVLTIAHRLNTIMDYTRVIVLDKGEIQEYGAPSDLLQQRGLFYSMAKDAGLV

With `COC(=O)N[C@@H](C)CNc1nccc(-c2cn(C(C)C)nc2-c2cc(Cl)cc(NS(C)(=O)=O)c2F)n1` [encorafenib], the IC50 at ABCC1 was 8.63 µM; against P-glycoprotein (ABCB1) it was 25.1 µM.
